Results: patent US20170008888A1 (KYORIN PHARMACEUTICAL CO., LTD., priority 2014, published 2017)
Like-named read-outs stand apart in the source and are kept apart here.

Legend:
human PBMCs = test: Human PBMC TNF-α response to endotoxin (ELISA); format: cell-based; conditions: 0.1 μg/ml LPS 16 h, read-out: EC50 for the inhibition of the human PBMC TNF-α response to endotoxin, ave. ± S.D.
How it was run: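 PBMCs at 2e6 cells/ml in RPMI 1640 with 10% charcoal-dextran-treated FBS were pre-treated 1 h at 37 °C with compound (4-point 1:5 dilution from 10 μM). Stimulation with 0.1 μg/ml E. coli 0111:B4 LPS for 16 h; TNF-α measured by ELISA (A450) in 25-fold diluted supernatant.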

[1] = biological target: T1, recombinant human ERK5 catalytic domain (Homo sapiens, UniProt Q13164); test: Recombinant human ERK5 radiometric (HotSpot) assay; format: biochemical
T1 construct: Recombinant human ERK5 catalytic domain radiometric assays; purchased Reaction Biology, Corp (Malvern, Pa.), which ran the assay as a service
T1 sequence (Q13164 55-347 limits assumed): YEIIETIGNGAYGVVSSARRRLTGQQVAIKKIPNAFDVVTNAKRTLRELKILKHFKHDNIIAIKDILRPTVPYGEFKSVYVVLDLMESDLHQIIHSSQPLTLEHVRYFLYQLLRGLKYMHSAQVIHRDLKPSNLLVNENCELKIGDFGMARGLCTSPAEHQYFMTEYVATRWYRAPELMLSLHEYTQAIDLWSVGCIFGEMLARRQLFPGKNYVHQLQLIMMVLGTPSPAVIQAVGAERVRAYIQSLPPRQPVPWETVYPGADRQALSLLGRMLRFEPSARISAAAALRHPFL
Description: In this example, potency of the compounds in recombinant human ERK5 was assayed.
Recombinant human ERK5 catalytic domain radiometric assays were performed by Reaction Biology, Corp (Malvern, Pa.). The HotSpot radiometric assay is based on conventional filter-binding assays (Nature Biotechnology (2011) 29: 1039-1045). Compounds were tested at 20 μM down by ⅓ in a 10 point serial dilution series. Briefly, [γ-33P]-ATP was used as the tracer along with 10 μM cold ATP to label ERK5 in the presence of 20 μM myelin basic protein substrate.

[2] = biological target: T2, BRD4 bromodomain domain I [BRD4(1)] (Homo sapiens, UniProt O60885); test: BRD4 bromodomain domain 1 inhibition assay (TR-FRET); format: binding; conditions: for inhibition at 10 µM: screening concentration 10 μM
T2 construct: BRD4 bromodomain domain I [BRD4(1)]; purchased Cayman Chemicals
How it was run: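 0.5% DMSO, in triplicate, using Cayman BRD4(1) TR-FRET protocol with slight modification. 670/620 nm ratio normalized to 10 μM JQ1, with DMSO control set as 0% inhibition.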

[3] = 10 μM ATP, 20 μM myelin basic protein substrate, read-out: rhERK5 IC50

| Structure (SMILES) | EC50 (human PBMCs) | IC50 [1, 3] | IC50 [2] | inhibition at 10 µM [2] | IC50 [1] |
| --- | --- | --- | --- | --- | --- |
| CCOc1cc(C(=O)N2CCN(C3CCN(C)CC3)CC2)ccc1Nc1cc2c(cn1)N(C)C(=O)c1cccc(F)c1N2C [Compound T125] | 790 ± 200 nM | 50 to 200 nM | 2000 to 5000 nM | – | – |
| CN1C(=O)c2ccccc2Sc2cc(N[C@H]3CC[C@H](O)CC3)ncc21 [Compound T116] | 1660 ± 1530 nM | > 200 nM | > 5000 nM | – | – |
| CCOc1cc(C(C)N2CC[C@@H](O)C2)ccc1Nc1cc2c(cn1)N(C)C(=O)c1ccccc1N2C (some centres unmarked) [Compound T27] | 370 nM | < 20 nM | – | > 85% | – |
| CCOc1cc(C(=O)N2CCN[C@@H](C)C2)ccc1Nc1cc2c(cn1)N(C)C(=O)c1ccccc1N2C [Compound T25] | 480 nM | < 20 nM | – | > 85% | – |
| CCOc1cc(C(=O)N2CCN(C3CCN(C)CC3)CC2)ccc1Nc1cc2c(cn1)N(C)C(=O)c1cccc(C)c1O2 [Compound T106] | 270 ± 170 nM | 50 to 200 nM | < 2000 nM | – | – |
| C[C@H]1C[C@H](Nc2cc3c(cn2)N(C)C(=O)c2ccccc2N3C)CC[C@H]1O [Compound T137] | 1110 ± 990 nM | 50 to 200 nM | > 5000 nM | – | – |
| CN1C(=O)c2ccccc2N(C)c2cc(N[C@H]3CC[C@H](NS(N)(=O)=O)CC3)ncc21 [Compound T128] | 2510 ± 1470 nM | 50 to 200 nM | 2000 to 5000 nM | – | – |
| CCOc1cc(C(=O)N[C@H]2CC[C@H](O)CC2)ccc1Nc1cc2c(cn1)N(C)C(=O)c1ccccc1O2 [Compound T89] | 1720 ± 1510 nM | 50 to 200 nM | > 5000 nM | – | – |
| CCOc1cc(C(=O)N2CCN(C3CCN(C)CC3)CC2)ccc1Nc1cc2c(cn1)N(C)C(=O)c1cccc(Cl)c1N2C [Compound T126] | 970 ± 830 nM | 50 to 200 nM | > 5000 nM | – | – |
| CCOC1CCCC[C@H]1Nc1cc2c(cn1)N(C)C(=O)c1ccccc1N2C (some centres unmarked) [Compound T113] | 2950 ± 2170 nM | > 200 nM | > 5000 nM | – | – |
| COc1cccc2c1N(C)c1cc(N[C@H]3CC[C@H](O)CC3)ncc1N(C)C2=O [Compound T122] | 3490 ± 3000 nM | 50 to 200 nM | > 5000 nM | – | – |
| CCOc1cc(C(=O)N2CCN(C3CCN(C)CC3)CC2)ccc1Nc1cc2c(cn1)N(C)C(=O)c1c(F)ccc(F)c1O2 [Compound T107] | 300 ± 250 nM | 20 to 50 nM | < 2000 nM | – | – |
| CCOc1cc(C(=O)N2CCN(C3CCN(C)CC3)CC2)ccc1Nc1cc2c(cn1)N(C)C(=O)c1cccc(Cl)c1O2 [Compound T104] | 510 ± 240 nM | 50 to 200 nM | 2000 to 5000 nM | – | – |
| CCOc1cc(C(=O)N2CCN(C3CCN(C)CC3)CC2)ccc1Nc1cc2c(cn1)N(C)C(=O)c1ccccc1S2 [Compound T99] | 3220 ± 2750 nM | 50 to 200 nM | > 5000 nM | – | – |
| CCOc1cc(C(=O)N2CCN(C3CCN(C)CC3)CC2)ccc1Nc1cc2c(cn1)N(C)C(=O)c1cccc(F)c1O2 [Compound T103] | 1230 ± 1310 nM | 50 to 200 nM | > 5000 nM | – | – |
| CN1C(=O)c2ccccc2N(C)c2cc(N[C@H]3CC[C@H](NS(=O)(=O)C4CC4)CC3)ncc21 [Compound T129] | 1790 ± 1440 nM | 50 to 200 nM | 2000 to 5000 nM | – | – |
| CN1C(=O)c2cccc(Cl)c2N(C)c2cc(N[C@H]3CC[C@H](O)CC3)ncc21 [Compound T120] | 2390 ± 2110 nM | > 200 nM | > 5000 nM | – | – |
| CCOc1cc(C(=O)N2CCN(C3CCN(C)CC3)CC2)ccc1Nc1cc2c(cn1)N(C)C(=O)c1cccc(OC)c1O2 [Compound T105] | 430 ± 280 nM | 50 to 200 nM | < 2000 nM | – | – |
| CN1C(=O)c2cccc(Cl)c2Oc2cc(N[C@H]3CC[C@H](O)CC3)ncc21 [Compound T94] | 1170 ± 1120 nM | > 200 nM | > 5000 nM | – | – |
| CCOc1cc(C(=O)N2CCN(c3cccnc3)CC2)ccc1Nc1cc2c(cn1)N(C)C(=O)c1ccccc1N2C [Compound T36] | 110 nM | < 20 nM | – | – | – |
| CCOc1cc(C(=O)N2CC[C@@H](N3CCOCC3)C2)ccc1Nc1cc2c(cn1)N(C)C(=O)c1ccccc1N2C [Compound T19] | 690 nM | 50 to 200 nM | – | – | – |
| CCOc1cc(C(=O)N2CCN(C(=O)CN)CC2)ccc1Nc1cc2c(cn1)N(C)C(=O)c1ccccc1N2C [Compound T30] | 770 nM | < 20 nM | – | – | – |

| Structure (SMILES) | EC50 (human PBMCs) | IC50 [1, 3] | IC50 [2] | inhibition at 10 µM [2] | IC50 [1] |
| --- | --- | --- | --- | --- | --- |
| CCOc1cc(C(=O)N2CCC[C@H](N3CCCC3)C2)ccc1Nc1cc2c(cn1)N(C)C(=O)c1ccccc1N2C [Compound T53] | 890 nM | 50 to 200 nM | – | – | – |
| CN1C(=O)c2ccccc2Oc2cc(N[C@H]3CC[C@H](O)CC3)ncc21 [Compound T117] | 2700 ± 2720 nM | > 200 nM | > 5000 nM | – | – |
| Cc1cccc2c1Oc1cc(N[C@H]3CC[C@H](O)CC3)ncc1N(C)C2=O [Compound T96] | 1100 ± 860 nM | > 200 nM | 2000 to 5000 nM | – | – |
| CN1C(=O)c2ccccc2N(C)c2cc(Nc3ccc(C(=O)N4CCCNCC4)cc3OCCF)ncc21 [Compound T33] | 670 nM | < 20 nM | – | – | – |
| CCOc1cc(C(=O)N2CC[C@@H](C#N)C2)ccc1Nc1cc2c(cn1)N(C)C(=O)c1ccccc1N2C [Compound T21] | 1280 nM | < 20 nM | – | – | – |
| CN1C(=O)c2ccccc2N(C)c2cc(N[C@H]3CC[C@H](N4CCCS4(=O)=O)CC3)ncc21 [Compound T136] | 2030 ± 1910 nM | 50 to 200 nM | > 5000 nM | – | – |
| CCOc1cc(C(=O)N2CCC[C@H](OP(=O)(O)O)C2)ccc1Nc1cc2c(cn1)N(C)C(=O)c1ccccc1N2C [Compound T43] | > 10000 nM | 20 to 50 nM | – | – | – |
| CCO[C@H]1CC[C@H](Nc2cc3c(cn2)N(C)C(=O)c2ccccc2N3C)CC1 [Compound T110] | 2740 ± 1870 nM | 50 to 200 nM | > 5000 nM | – | – |
| CCOc1cc(C(C)N2CCCC2)ccc1Nc1cc2c(cn1)N(C)C(=O)c1ccccc1N2C (centres unmarked) [Compound T26] | 410 nM | < 20 nM | – | > 85% | – |
| CCOc1cc(C(=O)N2CCC[C@H](C#N)C2)ccc1Nc1cc2c(cn1)N(C)C(=O)c1ccccc1N2C [Compound T24] | 3270 nM | > 200 nM | – | – | – |
| CN1C(=O)c2cccc(F)c2N(C)c2cc(N[C@H]3CC[C@H](O)CC3)ncc21 [Compound T118] | 2430 ± 1780 nM | > 200 nM | > 5000 nM | – | – |
| CN1C(=O)c2cccc(F)c2Oc2cc(N[C@H]3CC[C@H](O)CC3)ncc21 [Compound T93] | 1720 ± 1340 nM | > 200 nM | > 5000 nM | – | – |
| CCOc1cc(C(=O)N2CCN(C3CCN(C)CC3)CC2)ccc1Nc1cc2c(cn1)N(C)C(=O)c1c(F)cccc1N2C [Compound T124] | 310 ± 220 nM | 20 to 50 nM | < 2000 nM | – | – |
| CN1C(=O)c2c(F)cccc2N(C)c2cc(N[C@H]3CC[C@H](O)CC3)ncc21 [Compound T119] | 980 ± 930 nM | 50 to 200 nM | < 2000 nM | – | – |
| CN1C(=O)c2ccccc2N(C)c2cc(N[C@H]3CC[C@@H](O)CC3)ncc21 [Compound T114] | 3070 ± 3350 nM | > 200 nM | > 5000 nM | – | – |
| CCOc1cc(C(=O)N2CCN(CCOC)CC2)ccc1Nc1cc2c(cn1)N(C)C(=O)c1ccccc1N2C [Compound T16] | 920 nM | 20 to 50 nM | – | – | – |
| CCOc1cc(C(=O)N2CCC(=O)CC2)ccc1Nc1cc2c(cn1)N(C)C(=O)c1ccccc1N2C [Compound T28] | 480 nM | – | – | – | < 20 nM |
| CCOc1cc(C(=O)N2CCC(N3CCN[C@@H](C)C3)CC2)ccc1Nc1cc2c(cn1)N(C)C(=O)c1ccccc1N2C [Compound T52] | 1080 nM | 20 to 50 nM | – | – | – |
| CCCOc1cc(C(=O)N2CCC(N3CCN(C)CC3)CC2)ccc1Nc1cc2c(cn1)N(C)C(=O)c1ccccc1N2C [Compound T41] | 370 nM | 20 to 50 nM | – | – | – |
| CCOc1cc(C(=O)N2CCC(N3CCOCC3)CC2)ccc1Nc1cc2c(cn1)N(C)C(=O)c1ccccc1N2C [Compound T12] | 680 nM | 20 to 50 nM | – | – | – |
| CCOc1cc(C(=O)N2CCN[C@H](C)C2)ccc1Nc1cc2c(cn1)N(C)C(=O)c1ccccc1N2C [Compound T29] | 350 nM | < 20 nM | – | > 85% | – |
